Measurements: patent publication US20260139017A1, “COMPOSITIONS AND METHODS USING REELIN IN ALZHEIMER'S DISEASE” (The General Hospital Corporation, priority 2022, published 2026)

Key:
pDAB1 (Tyr232) [1] = test: HRECs treated 5 minutes with HEK 293T-derived mini-RELN media, pDAB1 western blot; assay type: cell-based, human; conditions: HEK 293T-derived media 1:1, 1:4, 1:14, 5 minutes
Protocol: The effect of in vitro treatment with RELN or miniRELN protein was also evaluated. HRECs were cultured in EBM-2 media enriched with EGM-2 Single Quots (Lonza) at 37° C. and 5% CO2 and experimentally tested at passage 7. 24 h prior experiment, cells were plated on a 6-well plate at 500,000 cells/mL. Two hours before the experiment, the cells were washed with PBS to remove residual growth media and then incubated with a starving media including EBM-2, 1% GlutaMax+0,2% Normicin. Treatments was conducted using media derived from HEK 293T cells transiently transfected for 24 h with different mini-RELN constructs in the presence of Lipofectamine 2000. […] Total protein levels were quantified via BCA assay. […] We detected pDAB1 (Tyr232; 1:1000, rabbit, #3325 Cell signaling), and Beta actin (1:5000, mouse, #66009-1-Ig, Proteintech. Antibodies were diluted using Intercept® (TBS) Blocking Buffer and incubated overnight at 4C under gentle shaking. Prior secondary antibody incubation, membranes were washes 2 times using TBS-T for 10 minutes. As secondary antibodies we used IR Dye 800n CW Goat-anti-Rabbit (925-32211, Licor) and IR Dye 680 CW Goat-anti-Mouse (925-68070, Licor) both diluted 1:10000 in blocking buffer for 1 h at room temperature under gentle shaking. Membranes were washed three times with TBS-T prior IR detection using Odyssey imager. […]

pDAB1 (Tyr232) [2] = test: HRECs treated 5 minutes with recombinant mini-RELN, pDAB1 western blot; assay type: cell-based, human; conditions: 5 minutes, 4 ug/mL recombinant protein
Protocol: For in vitro screening of constructs using recombinant mini-RELN on HRECs, the cells were cultured in EBM-2 media enriched with EGM-2 Single Quots (Lonza) at 37° C. and 5% CO2 and experimentally tested at passage 7. 24 h prior experiment, cells were plated on a 6-well plate at 500,000 cells/mL. Two hours before the experiment, the cells were washed with PBS to remove residual growth media and then incubated with a starving media including EBM-2, 1% GlutaMax+0.2% Normicin. Treatments was conducted using recombinant mini RELN constructs obtained from Innovagen and Recombinant Mouse Reelin Protein from R&D systems (3820-MR-025/CF). Each treatment was incubated for 5 minutes at 4 ug/mL concentration and cells were subsequently harvested in lysis buffer was applied constituted of RIPA (Cell signaling), proteases inhibitors (cOmplete™, Mini, EDTA-free Protease Inhibitor Cocktail, Roche), phosphatases inhibitors (PhosSTOP, Roche), 1 μL of proteasome inhibitor MG-132 10 mM, 1% Triton X 100. The lysates were scraped and centrifugated at 15000 rpm for 10 minutes at 4° C. Total protein levels were quantified via BCA assay. […] We detected pDAB1 (Tyr232; 1:1000, rabbit, #3325 Cell signaling), and total protein staining (Licor). […] To quantify the results, each band was quantified using ImageJ and data expressed as pDABL:total protein ratio normalized to the control.

IL2signalpeptide-6XHistag(SEQ ID NO: 62)-hReelin(AALeu1220-Ile2660) Cterm-REELINWT [225SV]
pDAB1 / Dab1 signaling activation (pDAB1 (Tyr232) [1]): efficacy | pDAB1 levels (pDAB1 (Tyr232) [2]): increased pDAB1 levels
